Reference: ChEMBL document CHEMBL1201861, “Genomics of Drug Sensitity in Cancer screening data, Wellcome Trust Sanger Institute”

What was measured:
Experiment in all cases: cells
NCI-H446 = assay type: functional, cell-based, Homo sapiens; settings: Homo sapiens, NCI-H446;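 further: growth inhibition of NCI-H446 cells determined by a cell viability assay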
NTERA-2-cl-D1 = assay type: functional, cell-based, Homo sapiens; settings: Homo sapiens, NTERA-2-cl-D1;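 further: inhibition of cell growth, measured with a cell viability assay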
GI-1 = assay type: functional, cell-based, Homo sapiens; settings: Homo sapiens, GI-1;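 further: growth inhibition of human GI-1 cells, measured with a cell viability readout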
D-247MG = assay type: functional, cell-based, Homo sapiens; settings: Homo sapiens, D-247MG
KNS-42 = assay type: functional, cell-based, Homo sapiens; settings: Homo sapiens, KNS-42;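 further: growth inhibition of KNS-42 cells, read out with a cell viability assay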
HDLM-2 = assay type: functional, cell-based, Homo sapiens; settings: Homo sapiens, HDLM-2;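 further: cell viability assay measuring suppression of HDLM-2 proliferation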
MOLT-16 = assay type: functional, cell-based, Homo sapiens; settings: Homo sapiens, MOLT-16;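 further: growth inhibition of human MOLT-16 cells, read out with a cell viability assay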
GOTO = assay type: functional, cell-based, Homo sapiens; settings: Homo sapiens, GOTO;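 further: growth inhibition of GOTO cells, read out by a cell viability assay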
no-10 = assay type: functional, cell-based, Homo sapiens; settings: Homo sapiens;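 further: growth inhibition of no-10 cells, read out with a cell viability assay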
OCI-AML2 = assay type: functional, cell-based, Homo sapiens; settings: Homo sapiens, OCI-AML2;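 further: growth inhibition of OCI-AML2 cells, read out with a cell viability assay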
LS-123 = assay type: functional, cell-based, Homo sapiens; settings: Homo sapiens, LS-123
SW872 = assay type: functional, cell-based, Homo sapiens; settings: Homo sapiens, SW872;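 further: growth inhibition of SW872 cells, read out by a viability assay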
TE-12 = assay type: functional, cell-based, Homo sapiens; settings: Homo sapiens, TE-12;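 further: growth inhibition of TE-12 cells, read out by a cell viability assay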
UACC-257 = assay type: functional, cell-based, Homo sapiens; settings: Homo sapiens, UACC-257
NEC8 = assay type: functional, cell-based, Homo sapiens; settings: Homo sapiens, NEC8;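 further: growth inhibition of human NEC8 cells, read out by a cell viability assay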
HuTu80 = assay type: functional, cell-based, Homo sapiens, HUTU-80; settings: Homo sapiens, HuTu80;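 further: growth inhibition of HuTu80 human cells, determined with a cell viability readout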
JAR = assay type: functional, cell-based, Homo sapiens; settings: Homo sapiens, JAR;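 further: growth inhibition of human JAR cells determined with a cell viability assay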
OS-RC-2 = assay type: functional, cell-based, Homo sapiens; settings: Homo sapiens, OS-RC-2;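 further: growth inhibition of human OS-RC-2 cells, measured by a cell viability assay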
LU-139 = assay type: functional, cell-based, Homo sapiens; settings: Homo sapiens, LU-139
ACN = assay type: functional, cell-based, Homo sapiens; settings: Homo sapiens, ACN;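 further: growth inhibition of the human ACN cell line, read out via cell viability testing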
MEG-01 = assay type: functional, cell-based, Homo sapiens; settings: Homo sapiens, MEG-01;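 further: growth inhibition of MEG-01 cells, read out by a cell viability assay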
JVM-3 = assay type: functional, cell-based, Homo sapiens; settings: Homo sapiens, JVM-3;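 further: growth inhibition of human JVM-3 cells, read out with a cell viability assay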
DB = assay type: functional, cell-based, Homo sapiens; settings: Homo sapiens, DB
OMC-1 = assay type: functional, cell-based, Homo sapiens; settings: Homo sapiens, OMC-1;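 further: growth inhibition of the OMC-1 cell line, measured by a cell viability assay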
L-363 = assay type: functional, cell-based, Homo sapiens; settings: Homo sapiens, L-363
A388 = assay type: functional, cell-based, Homo sapiens; settings: Homo sapiens, A388;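 further: growth inhibition of human A388 cells, read out with a cell viability assay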
NCI-H510A = assay type: functional, cell-based, Homo sapiens; settings: Homo sapiens, NCI-H510A;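 further: growth inhibition of NCI-H510A cells, read out with a cell viability assay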
SK-MEL-2 = assay type: functional, cell-based, Homo sapiens; settings: Homo sapiens, SK-MEL-2;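 further: growth inhibition of human SK-MEL-2 cells measured with a cell viability assay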
SHP77 = assay type: functional, cell-based, Homo sapiens, SHP-77; settings: Homo sapiens, SHP77;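 further: growth inhibition of human SHP-77 cells measured by a cell viability assay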
IST-MES1 = assay type: functional, cell-based, Homo sapiens; settings: Homo sapiens, IST-MES1;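 further: growth inhibition of IST-MES1 cells, measured with a cell viability assay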
EW-1 = assay type: functional, cell-based, Homo sapiens; settings: Homo sapiens, EW-1;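 further: growth inhibition of the human EW-1 cell line, read out by a cell viability assay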
MZ2-MEL = assay type: functional, cell-based, Homo sapiens; settings: Homo sapiens, MZ2-MEL;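 further: growth inhibition of MZ2-MEL cells read out with a cell viability assay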
NCI-H1648 = assay type: functional, cell-based, Homo sapiens; settings: Homo sapiens, NCI-H1648;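 further: cell viability assay measuring inhibition of NCI-H1648 cell growth, from the Sanger screening data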
SK-N-DZ = assay type: functional, cell-based, Homo sapiens; settings: Homo sapiens, SK-N-DZ;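 further: growth inhibition of the cancer cell line, read out through a viability assay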
GAK = assay type: functional, cell-based, Homo sapiens; settings: Homo sapiens, GAK;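 further: cell growth inhibition read out by a cell viability assay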
MZ7-mel = assay type: functional, cell-based, Homo sapiens; settings: Homo sapiens, MZ7-mel;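 further: growth inhibition of human MZ7-mel cells, measured by a cell viability assay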
ES5 = assay type: functional, cell-based, Homo sapiens; settings: Homo sapiens, ES5;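 further: growth inhibition of human ES5 cells, read out by a cell viability assay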
MFM-223 = assay type: functional, cell-based, Homo sapiens; settings: Homo sapiens, MFM-223
LC-2-ad = assay type: functional, cell-based, Homo sapiens; settings: Homo sapiens, LC-2-ad;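 further: growth inhibition of human LC-2-ad cells, read out with a cell viability assay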
NCI-H226 = assay type: functional, cell-based, Homo sapiens; settings: Homo sapiens, NCI-H226;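 further: cell viability read-out used to gauge growth inhibition of the cells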
NCI-H720 = assay type: functional, cell-based, Homo sapiens; settings: Homo sapiens, NCI-H720;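 further: growth inhibition of human NCI-H720 cells determined by a cell viability assay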
EKVX = assay type: functional, cell-based, Homo sapiens; settings: Homo sapiens, EKVX;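 further: growth inhibition of human EKVX cells, read out with a cell viability assay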
KINGS-1 = assay type: functional, cell-based, Homo sapiens; settings: Homo sapiens, KINGS-1;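 further: cell viability assay measuring suppression of KINGS-1 cell growth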
CTB-1 = assay type: functional, cell-based, Homo sapiens; settings: Homo sapiens, CTB-1
MFH-ino = assay type: functional, cell-based, Homo sapiens; settings: Homo sapiens, MFH-ino;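 further: growth inhibition of human MFH-ino cells, read out by a cell viability assay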
COLO-320-HSR = assay type: functional, cell-based, Homo sapiens; settings: Homo sapiens, COLO-320-HSR;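 further: growth inhibition of COLO-320-HSR cells, determined with a cell viability assay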
DEL = assay type: functional, cell-based, Homo sapiens; settings: Homo sapiens, DEL;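 further: growth inhibition of the human DEL cell line, read out with a cell viability assay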

In the case of `CCN(CC)CCNC(=O)c1c(C)[nH]c(/C=C2\C(=O)Nc3ccc(F)cc32)c1C` [SUNITINIB], the IC50 (NCI-H446) is reported as > 8000 nM, the IC50 (NTERA-2-cl-D1) is reported as > 8000 nM and the IC50 (GI-1) is reported as > 8000 nM. For the same compound, the IC50 (D-247MG) was > 8000 nM, the IC50 (KNS-42) was > 8000 nM and the IC50 (HDLM-2) was 6320 nM. The IC50 (MOLT-16) was 631 nM, the IC50 (GOTO) was > 8000 nM and the IC50 (no-10) was > 8000 nM. For the same compound, the IC50 (OCI-AML2) was 1370 nM, the IC50 (LS-123) was > 8000 nM and the IC50 (SW872) was > 8000 nM. For the same compound, the IC50 (TE-12) was 805 nM, the IC50 (UACC-257) was > 8000 nM and the IC50 (NEC8) was > 8000 nM. The IC50 (HuTu80) was > 8000 nM, the IC50 (JAR) was 3990 nM and the IC50 (OS-RC-2) was 4870 nM. For the same compound, the IC50 (LU-139) was > 8000 nM, the IC50 (ACN) was > 8000 nM and the IC50 (MEG-01) was 1840 nM. For the same compound, the IC50 (JVM-3) was > 8000 nM, the IC50 (DB) was > 8000 nM and the IC50 (OMC-1) was > 8000 nM. For the same compound, the IC50 (L-363) was 4810 nM, the IC50 (A388) was > 8000 nM and the IC50 (NCI-H510A) was > 8000 nM. The IC50 (SK-MEL-2) was > 8000 nM, the IC50 (SHP77) was > 8000 nM and the IC50 (IST-MES1) was > 8000 nM. The IC50 (EW-1) was 4680 nM, the IC50 (MZ2-MEL) was > 8000 nM and the IC50 (NCI-H1648) was > 8000 nM. For the same compound, the IC50 (SK-N-DZ) was 4670 nM, the IC50 (GAK) was […] and the IC50 (MZ7-mel) was > 8000 nM. For the same compound, the IC50 (ES5) was > 8000 nM, the IC50 (MFM-223) was > 8000 nM and the IC50 (LC-2-ad) was 1110 nM. The IC50 (NCI-H226) was > 8000 nM, the IC50 (NCI-H720) was > 8000 nM and the IC50 (EKVX) was > 8000 nM. The IC50 (KINGS-1) was > 8000 nM, the IC50 (CTB-1) was > 8000 nM and the IC50 (MFH-ino) was > 8000 nM. The IC50 (COLO-320-HSR) was > 8000 nM and the IC50 (DEL) was 2080 nM.

`OCCCNc1cc(-c2ccnc(Nc3cccc(Cl)c3)n2)ccn1` was tested, and the IC50 (NCI-H446) was > 256 nM, the IC50 (NTERA-2-cl-D1) was 50.8 nM and the IC50 (GI-1) was 78.1 nM. For the same compound, the IC50 (D-247MG) was > 256 nM, the IC50 (KNS-42) was 130 nM and the IC50 (HDLM-2) was > 256 nM. The IC50 (MOLT-16) was > 256 nM, the IC50 (GOTO) was 74.9 nM and the IC50 (no-10) was 14.8 nM. For the same compound, the IC50 (OCI-AML2) was 62.6 nM, the IC50 (LS-123) was 93 nM and the IC50 (SW872) was 26.6 nM. The IC50 (TE-12) was 48.5 nM, the IC50 (UACC-257) was > 256 nM and the IC50 (NEC8) was > 256 nM. It also gave an IC50 (HuTu80) of 20.2 nM, an IC50 (JAR) of 81.8 nM and an IC50 (OS-RC-2) of 82.9 nM. It also gave an IC50 (LU-139) of 131 nM, an IC50 (ACN) of 165 nM and an IC50 (MEG-01) of 126 nM. For the same compound, the IC50 (JVM-3) was > 256 nM, the IC50 (DB) was 138 nM and the IC50 (OMC-1) was 120 nM. The IC50 (L-363) was 92.6 nM, the IC50 (A388) was 47.7 nM and the IC50 (NCI-H510A) was > 256 nM. For the same compound, the IC50 (SK-MEL-2) was > 256 nM, the IC50 (SHP77) was 155 nM and the IC50 (IST-MES1) was 135 nM. The IC50 (EW-1) was 45.8 nM, the IC50 (MZ2-MEL) was 62.7 nM and the IC50 (NCI-H1648) was 189 nM. For the same compound, the IC50 (SK-N-DZ) was > 256 nM, the IC50 (GAK) was > 256 nM and the IC50 (MZ7-mel) was > 256 nM. For the same compound, the IC50 (ES5) was > 256 nM, the IC50 (MFM-223) was > 256 nM and the IC50 (LC-2-ad) was 16.6 nM. For the same compound, the IC50 (NCI-H226) was 213 nM, the IC50 (NCI-H720) was > 256 nM and the IC50 (EKVX) was > 256 nM. It also gave an IC50 (KINGS-1) of 103 nM, an IC50 (CTB-1) of 153 nM and an IC50 (MFH-ino) of 80.7 nM. For the same compound, the IC50 (COLO-320-HSR) was 82.9 nM and the IC50 (DEL) was 25.8 nM.
